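Following 48 hours of exposure in 96-well plates, responses at five concentrations were used to interpolate endpoints linearly. GI50 is the concentration that inhibits growth by half. TGI denotes the concentration required for complete inhibition of growth.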
What was measured:
Assay in all cases: NCI-60 cell line screen, 48 h
RPMI-8226 leukemia = tested on: RPMI-8226 leukemia
MDA-MB-231 breast = tested on: MDA-MB-231 breast
SNB-19 CNS = tested on: SNB-19 CNS
SN12C renal = tested on: SN12C renal
SK-MEL-28 melanoma = tested on: SK-MEL-28 melanoma
HS 578T breast = tested on: HS 578T breast
CCRF-CEM leukemia = tested on: CCRF-CEM leukemia
OVCAR-3 ovarian = tested on: OVCAR-3 ovarian

SMILES	TGI (RPMI-8226 leukemia) [µM]	TGI (MDA-MB-231 breast) [µM]	TGI (SNB-19 CNS) [µM]	TGI (SN12C renal) [µM]	TGI (SK-MEL-28 melanoma) [µM]	TGI (HS 578T breast) [µM]	TGI (CCRF-CEM leukemia) [µM]	TGI (OVCAR-3 ovarian) [µM]	GI50 (RPMI-8226 leukemia) [µM]	GI50 (MDA-MB-231 breast) [µM]	GI50 (SNB-19 CNS) [µM]	GI50 (SN12C renal) [µM]	GI50 (SK-MEL-28 melanoma) [µM]	GI50 (HS 578T breast) [µM]	GI50 (CCRF-CEM leukemia) [µM]	GI50 (OVCAR-3 ovarian) [µM]
COC1=CC2(CC(OC)=C1OC)OC21COc2ccccc2C1=O (stereo unspecified)	> 100	> 100	> 100	> 100	> 100	> 100	> 100	> 100	–	–	–	–	–	–	–	–
Nc1ncn2c(n1)nc1ccccc12	> 100	> 100	> 100	> 100	> 100	> 100	> 100	–	–	–	–	–	–	–	–	–
CC(C)(C)OC(=O)CN1CCNCCN(CC(=O)OC(C)(C)C)CCNCC1	> 100	> 100	> 100	> 100	> 100	> 100	> 100	> 100	–	–	–	–	–	–	–	–
Cc1cc(S(=O)(=O)Nc2nnc3cnc4ccccc4n23)c(S)cc1Cl	> 100	> 100	> 100	> 100	> 100	> 100	> 100	> 100	–	–	–	–	–	–	–	–
NCC(O)CNC(=O)c1ccc(-c2ccc(-c3ccc(C(=O)NCC(O)CN)cc3)o2)cc1 (stereo unspecified)	> 100	54.2	46.2	68.9	> 100	59.7	> 100	46.5	–	–	–	–	–	–	–	–
COC1=CC(=O)CC(C)C12Oc1c(Cl)c(OC)cc(OC)c1C2=O (stereo unspecified)	> 100	32.5	> 100	> 100	> 100	> 80	98.3	> 100	–	–	–	–	–	–	–	–
COc1ccc(N=NC(=O)NC(CC(C)C)C(N)=O)cc1 (stereo unspecified)	> 100	> 31.6	> 100	> 31.6	> 100	> 100	> 100	> 100	–	–	–	–	–	–	–	–
COC(=O)c1c(O)ccc2[nH]c3c(O)c4ccccc4cc3c12	44.7	> 100	> 100	> 100	76.4	72.8	63.1	31.6	–	–	–	–	–	–	–	–
CCOC(=O)Nc1ccc2c(c1)c(CCCCCCc1nc3ccccc3c3ccc(NC(=O)OCC)cc13)nc1ccccc12	> 100	67.8	> 100	> 100	> 100	> 100	> 100	58.7	–	–	–	–	–	–	–	–
Cn1c(CO)ccc1-c1ccc(-c2ccc[se]2)[se]1	> 71.6	60	> 100	99.5	> 100	> 100	> 60.6	–	–	–	–	–	–	–	–	–
CC(C)=CCC/C(C)=C/COc1c2ccoc2cc2oc(=O)ccc12	42.1	86.5	> 100	> 100	> 100	> 100	50.2	57.6	–	–	–	–	–	–	–	–
COc1cc(OC)cc(-c2n/c(=C\c3c(O)[nH]c4ccc(OC)cc34)cc3c2=Nc2ccccc2-3)c1	72.7	3.26	27.7	> 100	33.4	47.7	12.2	9.67	8.88	1.56	5.82	> 100	13.5	16.1	2.78	3.45
CCOC(=O)NC(OC)(C(F)(F)F)C(F)(F)F	> 100	> 100	> 100	–	> 100	> 100	> 100	> 100	–	–	–	–	–	–	–	–
O=C(Nc1cccc([N+](=O)[O-])c1)c1n[nH]n(-c2cccc([N+](=O)[O-])c2)c1=O	> 100	> 100	> 100	> 100	> 100	> 100	> 100	–	–	–	–	–	–	–	–	–
COC(=O)c1ccc(C)cc1CC1Cc2ccc(C)cc2C1=O (stereo unspecified)	36.5	77.4	> 100	32.7	76.7	48.9	74.5	25.3	–	–	–	–	–	–	–	–
CC(=O)Oc1c(-c2ccccc2)sc2ccccc12	24.8	33.4	> 100	–	53.1	40.6	37	–	–	–	–	–	–	–	–	–
O=c1oc2ccccc2cc1-c1cn2c(n1)sc1ccccc12	> 100	> 100	–	> 100	> 100	> 100	> 100	> 100	–	–	–	–	–	–	–	–
CC1(C)CCC(C)(C)C1C(=O)NC(O)C(=O)O (stereo unspecified)	> 100	> 100	> 100	> 100	> 100	> 100	> 100	–	–	–	–	–	–	–	–	–
O=C(O)c1cnc(-n2[nH]c3c(c2=O)CCCC3)[nH]c1=O	> 100	> 100	> 100	> 100	> 100	> 100	> 100	–	–	–	–	–	–	–	–	–

Source: PubChem BioAssay (NCI)
